Measured values reported in publication PMC4640659, “Antidepressant- and Anxiolytic-Like Effects of New Dual 5-HT1A and 5-HT7 Antagonists in Animal Models” (PLoS ONE, 2015).
pIC50, pKi: −log10 of the molar value. “Also recorded” adds a separate entry of the source. Structures can show the parent of a compound that is named as a salt.

Key:
mice [1] = test: Four-plate test in mice; type: in vivo
rats [2] = test: Elevated plus maze (EPM) test in rats; type: in vivo
Excerpt: Plus-maze apparatus (an automated device produced by Campden Instruments Ltd, UK) made of durable, high density, nonporous black plastic, elevated to a height of 50 cm, consisted of two open arms (50 cm x 10 cm) and two closed arms (50 cm x 10 cm, and 30 cm high walls), arranged so that the two arms of each type were opposite each other. Floor of the plus-maze was made of infrared transparent material what means that there are no visible sensors. The plus-maze was placed in a darkened room; only the centre of the apparatus was illuminated with low-density light (30 lux measured on the maze level). Plus-maze apparatus was connected to PC software by control chassis. Each rat was gently placed in the centre of the plus-maze, facing one of the closed arms, immediately after a 5-min adaptation period in a plastic black box (60 cm x 60 cm x 35 cm). During a 5-min test period, automated Motor Monitor System recorded the number of entries into the closed and open arms, the time spent in either type of the arms. After each trial the maze was wiped clean. Studied compounds and reference drug were administered (i.p.) 30 min before the test.

mice [3] = test: Forced swim test (FST) in mice; type: in vivo; details: for Effect on immobility time, given alone at sub-effective dose: i.p., fluoxetine 10, reboxetine 5, bupropion 2.5, HBK-14 1.25, HBK-15 0.625 mg/kg; for Decrease of immobility time: vs control
Protocol: The studies were carried out on mice according to the method described by Porsolt et al.. The animals were dropped individually into glass cylinders (height 25 cm, diameter 10 cm) containing 10 cm of water, maintained at 23–25°C. Mice were left in the cylinder for 6 min. […] The mouse was judged to be immobile when it remained floating passively in the water.

rats [4] = test: FST in rats; type: in vivo
Protocol: The experiment was carried out according to the method of Detke et al. [33]. On the first experimental day rats were placed individually in Plexiglas cylinders (40 cm height, 18 cm in diameter) containing 30 cm of water maintained at 25°C for 15 min. After that time the rats were placed for 30 min under a 60-W bulb to dry. 24 hours after the pre-test, the rats were placed again in the cylinders and the total duration of immobility (when a rat remained floating in the water without struggling and was making only those movements necessary to keep its head above water), swimming (when a rat was making active swimming motions, more than necessary to merely maintain its head above water, e.g. moving around in the cylinder) and climbing (when a rat was making active movements with its forepaws in and out of the water, usually directed against the walls) was recorded during the whole 5-min test period. Fresh water was used for each animal.

α1-adrenoceptor = test: Radioligand binding, [3H]-prazosin, rat cerebral cortex; details: read-out: Adrenergic Ki α1
human 5-HT2A receptor = molecular target: T1, human 5-HT2A receptor (Homo sapiens, UniProt P28223); test: Radioligand binding, [3H]-ketanserin, CHO-K1 cell membranes; details: read-out: Serotonergic Ki 5-HT2A
T1 construct: expressed in transfected cells; host or cells: CHO-K1
Protocol: Radioligand binding was performed using membranes from CHO-K1 cells stably transfected with the human 5-HT2A receptor. Monolayer of CHO-K1 cells with stable expression of human receptor after reaching about 90% confluence was washed twice with PBS. After that the cells were scrapped and collected to centrifuge tubes. About 20 volumes of assay buffer was added to each tube and cells were homogenized (3 x 10 sec., 24 000 rpm; Ultra Turrax T25B homogenizator, IKA Labortechnik, USA). Tubes were centrifuged (20 min., 30 000 x g, about 4°C; 3K30 centrifuge, Sigma Laborzentrifugen, Germany). Supernatant was discarded and appropriate volume of assay buffer with 10% glycerol was added and homogenization was repeated. Membrane suspension was aliquoted into cryotubes, freezed in liquid nitrogen and stored until assay in -80°C. Membrane protein concentration was determined by BCA method. Immediately before assay frozen membranes were thawed quickly (about 35°C), mixed and homogenized (60 sec., 24,000 rpm) with appropriate volume of assay buffer to reach desired membrane protein concentration. All assays were carried out in duplicates. […] Microplate was covered with a sealing tape, mixed and incubated for 60 minutes at 27°C. […] Radioactivity was counted in MicroBeta2 scintillation counter (PerkinElmer) at approximately 30% efficiency. Inhibition constants (Ki) were calculated.

[5] = molecular target: T2, Serotonin transporter (SERT) (Rattus norvegicus, UniProt P31652); test: Radioligand binding, [3H]-citalopram, rat cerebral cortex; details: read-out: Serotonergic Ki SERT
T2 construct: Rat cerebral cortex was homogenized; from tissue; host or cells: rat cerebral cortex
Protocol: The supernatant was decanted and pellet was re-suspended in 30 volumes of buffer and centrifuged again. The resulting pellet was re-suspended in the same quantity of the buffer and centrifuged third time in the same conditions. […] Ki values were calculated.

human D2 receptor = molecular target: T3, human D2 receptor (Homo sapiens, UniProt P14416); test: Radioligand binding, [3H]-methylspiperon, CHO-K1 cell membranes; details: read-out: Dopaminergic Ki D2
T3 construct: expressed in transfected cells; host or cells: CHO-K1
Protocol: Radioligand binding was performed using membranes from CHO-K1 cells stably transfected with the human D2 receptor. All assays were carried out in duplicates. […] (+)-butaclamol (10 μM) was used to define nonspecific binding. Microplate was covered with a sealing tape, mixed and incubated for 60 minutes at 37°C. The reaction was terminated by rapid filtration through GF/C filter mate pre-soaked with 0.3% polyethyleneimine for 30 minutes. Ten rapid washes with 200 μl 50 mM Tris buffer (4°C, pH 7.4) were performed using automated harvester system Harvester-96 MACH III FM (Tomtec). The filter mates were dried at 37°C in forced air fan incubator and then solid scintillator MeltiLex was melted on filter mates at 90°C for 5 minutes. Radioactivity was counted in MicroBeta2 scintillation counter (PerkinElmer) at approximately 30% efficiency. Ki values were calculated.

[6] = molecular target: T4, human serotonin 5-HT7 receptor (Homo sapiens, UniProt P34969); test: cAMP functional assay (LANCE Ultra TR-FRET), CHO-K1 cells; type: cell-based; details: for Kb / Antagonist activity weaker than reference antagonist SB-269970 / Emax: 5-HT7; for Kb: Cheng-Prusoff equation, read-out: Antagonist mode Kb; for Antagonist activity weaker than reference antagonist SB-269970: range over HBK-14 and HBK-15; for Emax: CHO-K1, mean of two independent experiments in duplicate, read-out: Agonist mode Emax
T4 construct: host or cells: CHO-K1 (with CRE-bla reporter)
Protocol: CHO-K1 cells were transfected with a beta lactamase (bla) reporter gene under control of the cyclic AMP response element (CRE) (Life Technologies).
Thawed cells were resuspended in stimulation buffer (HBSS, 5 mM HEPES, 0.5 IBMX, and 0.1% BSA at pH 7.4) at 2x10^5 cells/ml for 5-HT7 receptor. The same volume (10 μl) of cell suspension was added to tested compounds for 5-HT7 receptor. Samples were loaded onto a white opaque half area 96-well microplate. […] The agonist and antagonist were added simultaneously. Cell stimulation was performed for 1h at room temperature. After incubation, cAMP measurements were performed with homogeneous TR-FRET immunoassay using the LANCE Ultra cAMP kit (PerkinElmer, USA). 10 μl of EucAMP Tracer Working Solution and 10 μl of ULight-anti-cAMP Tracer Working Solution were added, mixed, and incubated for 1 h. The TR-FRET signal was read on an EnVision microplate reader (PerkinElmer, USA).

5-HT1A receptors = details: authors' previous studies; cited from earlier work
5-HT7 receptors = details: authors' previous studies; cited from earlier work
5-HT6 receptors = details: authors' former studies; cited from earlier work
levels of serotonin = tested on: levels of serotonin; parameters: method as in PMID 9044239; details: mice, 3-day treatment 200 mg/kg; cited from earlier work
[7] = 1.25 mg/kg i.p. 30 min before test
[8] = 2.5 mg/kg i.p. 30 min before test
[9] = 5 mg/kg i.p. 30 min before test
[10] = i.p., ANOVA over the doses tested
[11] = 2.5 mg/kg i.p., pCPA interaction experiment (Fig 8A, 8B)
[12] = pCPA 200 mg/kg i.p. once daily for 3 days

T4 sequence (P34969 whole entry): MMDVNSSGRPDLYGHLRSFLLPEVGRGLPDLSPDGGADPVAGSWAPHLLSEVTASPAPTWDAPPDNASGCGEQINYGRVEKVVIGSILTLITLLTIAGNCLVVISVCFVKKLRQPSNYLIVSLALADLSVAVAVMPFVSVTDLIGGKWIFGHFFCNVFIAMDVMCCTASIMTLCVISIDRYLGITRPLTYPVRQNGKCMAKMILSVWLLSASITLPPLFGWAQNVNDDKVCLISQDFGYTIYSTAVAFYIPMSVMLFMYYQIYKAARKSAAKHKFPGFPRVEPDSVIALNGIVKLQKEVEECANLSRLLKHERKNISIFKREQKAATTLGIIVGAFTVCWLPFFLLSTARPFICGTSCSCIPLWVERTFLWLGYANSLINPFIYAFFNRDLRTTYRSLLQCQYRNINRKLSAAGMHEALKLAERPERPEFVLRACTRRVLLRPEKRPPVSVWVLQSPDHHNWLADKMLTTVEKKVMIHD
T2 sequence (P31652 whole entry): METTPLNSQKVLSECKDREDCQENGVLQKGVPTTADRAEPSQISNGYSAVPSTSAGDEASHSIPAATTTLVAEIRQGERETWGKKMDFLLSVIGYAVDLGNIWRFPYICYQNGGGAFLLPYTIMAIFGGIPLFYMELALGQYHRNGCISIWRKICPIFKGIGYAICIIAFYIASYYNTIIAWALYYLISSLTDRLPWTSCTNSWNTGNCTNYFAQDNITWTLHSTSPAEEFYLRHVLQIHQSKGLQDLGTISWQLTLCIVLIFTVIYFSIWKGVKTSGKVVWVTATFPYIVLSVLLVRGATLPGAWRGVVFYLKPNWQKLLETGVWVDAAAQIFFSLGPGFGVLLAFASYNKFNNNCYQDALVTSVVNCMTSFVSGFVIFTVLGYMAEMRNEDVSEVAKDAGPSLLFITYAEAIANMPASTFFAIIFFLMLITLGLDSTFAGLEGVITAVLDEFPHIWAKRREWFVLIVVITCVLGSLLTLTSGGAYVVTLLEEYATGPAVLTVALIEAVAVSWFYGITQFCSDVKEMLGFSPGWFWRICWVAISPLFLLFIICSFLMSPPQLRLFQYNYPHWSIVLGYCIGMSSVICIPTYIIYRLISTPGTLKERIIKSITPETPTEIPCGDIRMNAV
T3 sequence (P14416 whole entry): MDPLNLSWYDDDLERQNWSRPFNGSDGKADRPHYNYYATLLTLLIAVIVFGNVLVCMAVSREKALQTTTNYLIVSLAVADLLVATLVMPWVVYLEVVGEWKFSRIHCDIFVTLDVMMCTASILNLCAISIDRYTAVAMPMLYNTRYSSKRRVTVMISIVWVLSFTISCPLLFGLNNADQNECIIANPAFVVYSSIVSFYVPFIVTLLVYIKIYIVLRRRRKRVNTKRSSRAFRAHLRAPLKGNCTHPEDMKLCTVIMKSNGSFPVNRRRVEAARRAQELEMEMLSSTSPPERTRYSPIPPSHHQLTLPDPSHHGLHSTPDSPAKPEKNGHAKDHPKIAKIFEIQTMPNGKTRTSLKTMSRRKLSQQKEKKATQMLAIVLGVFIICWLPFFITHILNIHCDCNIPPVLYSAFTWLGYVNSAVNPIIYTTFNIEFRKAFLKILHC
T1 sequence (P28223 whole entry): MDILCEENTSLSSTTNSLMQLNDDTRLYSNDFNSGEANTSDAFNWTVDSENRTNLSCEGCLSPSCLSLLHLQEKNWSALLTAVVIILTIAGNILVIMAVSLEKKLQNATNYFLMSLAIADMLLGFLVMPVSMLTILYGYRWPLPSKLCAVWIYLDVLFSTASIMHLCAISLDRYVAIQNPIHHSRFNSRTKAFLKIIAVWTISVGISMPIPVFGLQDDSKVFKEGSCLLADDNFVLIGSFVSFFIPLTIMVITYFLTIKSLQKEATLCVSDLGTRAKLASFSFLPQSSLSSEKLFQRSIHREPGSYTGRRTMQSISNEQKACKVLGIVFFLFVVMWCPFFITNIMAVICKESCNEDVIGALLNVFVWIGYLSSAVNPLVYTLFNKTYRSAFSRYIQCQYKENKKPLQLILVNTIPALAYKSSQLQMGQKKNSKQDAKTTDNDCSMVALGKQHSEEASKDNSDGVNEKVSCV

## CN1C(=O)CN=C(c2ccccc2)c2cc(Cl)ccc21 [Diazepam, diazepam, reference compound]
Mice [1]; [7]
  Increase of the number of punished crossings: 62%
Mice [1]; [8]
  Increase of the number of punished crossings: 73%
Rats [2]; [8]
  Increase of the percentage of open-arm entries: 131%
  Increase of the percentage of time spent in the open arms: 672%

## CC(NC(C)(C)C)C(=O)c1cccc(Cl)c1 (stereo not shown) [bupropion, reference compound]
Mice [3]
  Effect on immobility time, given alone at sub-effective dose: did not affect

## CCOc1ccccc1OC(c1ccccc1)C1CNCCO1 (stereo not shown) [reboxetine, reference compound]
Mice [3]
  Effect on immobility time, given alone at sub-effective dose: did not affect

## CN(C)CCCN1c2ccccc2CCc2ccccc21 [Imipramine, imipramine, reference compound]
Mice [3]; [9]
  Decrease of immobility time: 50%
Rats [4]; 10 mg/kg i.p. 30 min before test
  Decrease of immobility time: 51%
Rats [4]; [10]
  Effect on duration of swimming: no significant effect

## Cc1ccc(N(CC2=NCCN2)c2cccc(O)c2)cc1 [Phentolamine, phentolamine, reference compound]
α1-adrenoceptor
  pKi: 8.05

## COc1ccccc1N1CCN(CCOCCOc2c(C)cccc2C)CC1 [HBK-14, 1-{2-[2-(2,6-dimethlphenoxy)ethoxy]ethyl}-4-(2-methoxyphenyl)piperazynine hydrochloride]
Human 5-HT2A receptor
  pKi: 6.58
[5]
  pKi: 5.46
α1-adrenoceptor
  pKi: 7.64
Human D2 receptor
  pKi: 6.66
[6]
  pIC50: 7.11
  Kb: 24 nM
  Antagonist activity weaker than reference antagonist SB-269970: 51-147 fold
  Emax: 19%
Mice [3]; [8]
  Decrease of immobility time: 30%
Mice [3]; 2.5 mg/kg i.p., pCPA interaction experiment (Fig 5A)
  Reduction of immobility: 25%
Mice [3]; [9]
  Decrease of immobility time: 31%
Mice [3]
  Effect on immobility time, given alone at sub-effective dose: none of tested compounds (HBK-14 1.25 mg/kg and HBK-15 0.625 mg/kg) administered alone affected the mouse immobility
Rats [4]; 5 mg/kg i.p.
  Increase of swimming behaviour: 185%
Rats [4]; [9]
  Decrease of immobility time: 38%
Rats [4]; [10]
  Effect on duration of climbing: no significant effect
Mice [1]; [8]
  Increase of the number of punished crossings: 68%
Mice [1]; [11]
  Increase of the number of punished crossings: 105%
Mice [1]; [9]
  Increase of the number of punished crossings: 87%
Rats [2]; [8]
  Increase of the percentage of open-arm entries: 90%
  Increase of the percentage of time spent in the open arms: 591%
5-HT1A receptors
  pKi: 7.39
5-HT7 receptors
  pKi: 6.81
5-HT6 receptors
  pKi: 5.00

## COc1ccccc1N1CCN(CCN(C(=O)C2CCCCC2)c2ccccn2)CC1.Cl.Cl.Cl [WAY-100635, N-{2-[4-(2-methoxyphenyl)-1-piperazinyl]ethyl}-N-(2-pyridinyl)cyclohexanecarboxamide trihydrochloride, reference compound]
Mice [3]; WAY-100635 0.1 mg/kg s.c.
  Effect on duration of immobility time, given alone: had no effect
Mice [1]; WAY-100635 0.1 mg/kg s.c., 0.1 mg/kg
  Effect on the number of punished crossings, given alone: had no effect; also recorded: showed no effect

## N[C@@H](Cc1ccc(Cl)cc1)C(=O)O (racemic) [pCPA, p-Chlorophenylalanine, reference compound]
Mice [3]; [12]
  Effect on immobility, given alone: did not influence immobility time
Mice [1]; [12]
  Effect on the number of punished crossings, given alone: showed no effect; also recorded: had no effect
Levels of serotonin
  Reduction of the levels of serotonin in cortex: around 30%
  Reduction of the levels of serotonin in diencephalon: ~35%
  Reduction of the levels of serotonin in midbrain: ~24%
  Reduction of the levels of serotonin in pons & medulla: ~34%

## CNCCC(Oc1ccc(C(F)(F)F)cc1)c1ccccc1 (stereo not shown) [fluoxetine, reference compound]
Mice [3]
  Effect on immobility time, given alone at sub-effective dose: did not affect

## CN(C)CCC[C@@]1(c2ccc(F)cc2)OCc2cc(C#N)ccc21 [Escitalopram, escitalopram, reference compound]
Mice [3]; [8]
  Decrease of immobility time: 42%
Rats [4]; 30 mg/kg i.p.
  Increase of swimming: 171%
Rats [4]; 30 mg/kg i.p. 30 min before test
  Decrease of immobility time: 48%
Rats [4]; [10]
  Effect on duration of climbing: no influence

## COc1ccccc1N1CCN(CCOCCOc2c(C)cccc2Cl)CC1 [HBK-15, 2-[2-(2-chloro-6-methylphenoxy)ethoxy]ethyl-4-(2-methoxyphenyl)piperazynine dihydrochloride]
Human 5-HT2A receptor
  pKi: 6.96
[5]
  pKi: 6.28
α1-adrenoceptor
  pKi: 7.89
Human D2 receptor
  pKi: 7.27
[6]
  pIC50: 6.66
  Kb: 69 nM
  Antagonist activity weaker than reference antagonist SB-269970: 51-147 fold
  Emax: 0%
Mice [3]; [7]
  Decrease of immobility time: 40%
Mice [3]; 1.25 mg/kg i.p., pCPA interaction experiment (Fig 5B)
  Reduction of immobility: 22%
Mice [3]; [8]
  Decrease of immobility time: 42%
Mice [3]; [9]
  Decrease of immobility time: 46%
Mice [3]
  Effect on immobility time, given alone at sub-effective dose: none of tested compounds (HBK-14 1.25 mg/kg and HBK-15 0.625 mg/kg) administered alone affected the mouse immobility
Rats [4]; 1.25 mg/kg i.p.
  Increase of swimming time: 166%
Rats [4]; [7]
  Decrease of immobility time: 30%
Rats [4]; 2.5 mg/kg i.p.
  Increase of swimming time: 191%
Rats [4]; [8]
  Decrease of immobility time: 38%
Rats [4]; [10]
  Effect on duration of climbing: no significant influence
Mice [1]; [8]
  Increase of the number of punished crossings: 52%
Mice [1]; 2.5 mg/kg i.p., WAY-100635 interaction experiment (Fig 8C, 8D), 2.5 mg/kg
  Increase of the number of punished crossings: 111%
Mice [1]; [11]
  Increase of the number of punished crossings: 109%
Mice [1]; [9]
  Increase of the number of punished crossings: 88%
Rats [2]; [9]
  Increase of the percentage of open-arm entries: 89%
  Increase of the percentage of time spent in the open arms: 198%
5-HT1A receptors
  pKi: > 9.00
5-HT7 receptors
  pKi: 7.47
5-HT6 receptors
  pKi: 5.02
